Assays:
Format in all cases: in vivo
[1] = system: harmful plants which are typical for rice crops, for example Cyperus iria and Echinochloa crus-galli; assay: Action on harmful plants in rice (paddy rice conditions); conditions: applied into the dammed water, different dosages, scored about three weeks after application
From the text: Transplanted and sown rice and also typical rice weeds (gramineous and broad-leaved) are cultivated in closed plastic pots in a greenhouse to the three-leaf stage (Echinochloa crus-galli 1.5-leaf) under paddy rice conditions (dammed height of water: 2-3 cm). This is followed by treatment with the novel compounds. For this purpose, the formulated active compounds are suspended, dissolved or emulsified in water and applied by pouring them into the dammed water around the test plants in different dosages. After this treatment, the test plants are set up in a greenhouse under optimum growth conditions and are maintained in this way throughout the test period.
About three weeks after application, evaluation is made by visual scoring of the damage to the plants by comparison with untreated controls.

[2] = system: Stellaria media, Lolium multiflorum, Amaranthus retroflexus, Sinapis arvensis, Avena fatua and Setaria viridis; assay: Pre-emergence effect on weeds (greenhouse pot test); conditions: application rate of 1 kg and less of active substance per hectare; scored after 3 to 4 weeks by comparison with untreated controls
From the text: Seeds or rhizome pieces of monocotyledonous and dicotyledonous weed plants are placed in sandy loam soil in plastic pots and covered with soil. The compounds according to the invention which are formulated in the form of wettable powders or emulsion concentrates were then applied to the surface of the soil cover in the form of aqueous suspensions or emulsions at an application rate of 600 to 800 l of water/ha (converted), in various dosages.
After the treatment, the pots are placed in a greenhouse and kept under good growth conditions for the weeds. After the test plants had emerged, the damage to the plants or the negative effect on the emergence was scored visually after a test period of 3 to 4 weeks by comparison with untreated controls. As shown by the test results, compounds according to the invention have good herbicidal pre-emergence activity against a broad spectrum of weed grasses and broad-leafed weeds.

[3] = system: Stellaria media, Lolium multiflorum, Amaranthus retroflexus, Sinapis arvensis, Avena fatua und Setaria viridis; assay: Post-emergence effect on weeds (greenhouse pot test); conditions: application rate of 1 kg and less of active substance per hectare; treated at three-leaf stage; scored after about 3 to 4 weeks by comparison with untreated controls
Method: Seeds or rhizome pieces of monocotyledonous and dicotyledonous weeds were placed in sandy loam soil in plastic pots, covered with soil and grown in a greenhouse under good growth conditions. Three weeks after sowing, the test plants were treated at the three-leaf stage. The compounds according to the invention which were formulated as wettable powders or emulsion concentrates were sprayed, at various dosages, onto the, green parts of the plants at an application rate of 600 to 800 l of water/ha (converted). After the test plants had remained in the greenhouse for about 3 to 4 weeks under optimum growth conditions, the effect of the preparations was scored visually by comparison with untreated controls. The agents according to the invention also have good herbicidal activity post-emergence against a broad spectrum of economically important weed grasses and broad-leafed weeds.

Cc1cccc(OCC(Nc2nc(N)nc(C(F)(F)C(F)F)n2)C2CCCC2)c1 (racemic) [Example 110, 2-Amino-4-(1,1,2,2-tetrafluoroethyl)6-{N-[1-cyclopentyl-2-(3-methylphenoxy)ethyl]amino}-1,3,5-triazine]
very good herbicidal activity: herbicidal activity against harmful plants typical for rice crops (visual scoring of damage) [1] | herbicidal activity pre-emergence (damage to the plants or negative effect on emergence, scored visually) [2] | herbicidal activity post-emergence (scored visually) [3]

CC(C)(F)c1nc(N)nc(NC(COc2ccccc2)C2CCC2)n1 (racemic) [Example 178, 2-Amino4-(1-fluoro-1-methylethyl)-6-[N-(1-cyclobutyl-2-phenoxyethyl)-amino]-1,3,5-triazine]
very good herbicidal activity: herbicidal activity against harmful plants typical for rice crops (visual scoring of damage) [1] | herbicidal activity pre-emergence (damage to the plants or negative effect on emergence, scored visually) [2] | herbicidal activity post-emergence (scored visually) [3]

Source: patent US20040034222A1, “2,4 diamino-1,3,5-triazines, processes for their preparation and their use as herbicides and plant growth regulators” (priority 1999, published 2004)
